In patent US8987193B2, “Nisin derivatives and the use thereof” (University College Cork—National University of Ireland, Cork, priority 2008, dated 2015):
“Also recorded” adds a separate entry of the source. Ends that are not written are not given here.

Columns and labels:
[1] = system: Listeria monocytogenes SLCC 6793; assay: Deferred antagonism assay; assay type: cell-based; conditions: nisin strain; L. monocytogenes SLCC 6793
Protocol: (§1) Deferred antagonism assays were performed by replicating strains on GM17 or GM17 x-gal agar plates and allowing them to grow overnight before overlaying with either GM17/BHI/TS/MH agar (0.75% w/v agar) seeded with the appropriate indicator strain. Zone size was calculated as the diameter of the zone of clearing minus the diameter of bacterial growth (5 mm) For higher throughput screening of N20PXX, XM21VX, XXK22T and XXX banks deferred antagonism assays were performed by replicating strains using a 96 pin replicator (Boekel) or spotting 5 μl of a fresh overnight culture on GM17 agar plates and allowing them to grow overnight. […] Additional sets of indicators were employed to further assess/reassess the bioactivity of a number of strains. […] For well-diffusion assays molten agar was cooled to 48° C. and seeded with the appropriate indicator strain. The inoculated medium was rapidly transferred into sterile Petri plates in 50 ml volumes, allowed to solidify and dried. Wells (4.6 mm in diameter) were then made in the seeded plates. Purified nisin and mutant nisins were resuspended in 0.005% acetic acid, serially diluted, 50 μl volumes were dispensed into the aforementioned wells and the plates incubated at 37° C. overnight. Bioactivity was expressed as arbitrary units/ml (AU/ml) and calculated as the reciprocal of the highest dilution that gave a definite zone multiplied by the conversion factor (i.e. 20 when 50 μl was used) (Ryan et al., 1996).

[2] = system: Listeria monocytogenes 33411; assay: Deferred antagonism assay; assay type: cell-based; conditions: nisin strain; L. monocytogenes 33411
Protocol: as §1

[3] = system: Listeria monocytogenes 33037; assay: Deferred antagonism assay; assay type: cell-based; conditions: nisin strain; L. monocytogenes 33037
Protocol: as §1

[4] = system: Listeria monocytogenes 33007; assay: Deferred antagonism assay; assay type: cell-based; conditions: nisin strain; L. monocytogenes 33007
Protocol: as §1

[5] = system: Listeria monocytogenes 33077; assay: Deferred antagonism assay; assay type: cell-based; conditions: nisin strain; L. monocytogenes 33077
Protocol: as §1

[6] = system: Listeria monocytogenes NRRLB 33038; assay: Deferred antagonism assay; assay type: cell-based; conditions: nisin strain; L. monocytogenes NRRLB 33038
Protocol: as §1

[7] = system: Listeria monocytogenes LO28; assay: Deferred antagonism assay; assay type: cell-based; conditions: nisin strain; L. monocytogenes LO28
Protocol: as §1

[8] = system: Listeria monocytogenes 33423; assay: Deferred antagonism assay; assay type: cell-based; conditions: nisin strain; L. monocytogenes 33423
Protocol: as §1

[9] = system: Listeria monocytogenes CD1038; assay: Deferred antagonism assay; assay type: cell-based; conditions: nisin strain; L. monocytogenes CD1038
Protocol: as §1

[10] = system: Listeria monocytogenes 33090; assay: Deferred antagonism assay; assay type: cell-based; conditions: nisin strain; L. monocytogenes 33090
Protocol: as §1

[11] = system: Listeria monocytogenes CD83; assay: Deferred antagonism assay; assay type: cell-based; conditions: nisin strain; L. monocytogenes CD83
Protocol: as §1

[12] = system: Listeria monocytogenes SLCC 7194; assay: Deferred antagonism assay; assay type: cell-based; parameters: key: −, no inhibition; (+), clear zone directly above the colony; +, 1-5 mm zone; ++, 6-10 mm zone; +++, <10 mm zone; conditions: nisin strain; L. monocytogenes SLCC 7194
Protocol: as §1

[13] = system: Listeria monocytogenes 33008; assay: Deferred antagonism assay; assay type: cell-based; parameters: key: −, no inhibition; (+), clear zone directly above the colony; +, 1-5 mm zone; ++, 6-10 mm zone; +++, <10 mm zone; conditions: nisin strain; L. monocytogenes 33008
Protocol: as §1

[14] = system: Listeria monocytogenes 33083; assay: Deferred antagonism assay; assay type: cell-based; parameters: key: −, no inhibition; (+), clear zone directly above the colony; +, 1-5 mm zone; ++, 6-10 mm zone; +++, <10 mm zone; conditions: nisin strain; L. monocytogenes 33083
Protocol: as §1

[15] = system: Listeria monocytogenes F6854; assay: Deferred antagonism assay; assay type: cell-based; parameters: key: −, no inhibition; (+), clear zone directly above the colony; +, 1-5 mm zone; ++, 6-10 mm zone; +++, <10 mm zone; conditions: nisin strain; L. monocytogenes F6854
Protocol: as §1

[16] = system: Strep. agalactiae ATCC13813; assay: Deferred antagonism assay; assay type: cell-based; conditions: producing strain, diameter of zone minus 5 mm, average of duplicates
[17] = system: Staph. aureus ST528 (MRSA); assay: Deferred antagonism assay; assay type: cell-based; conditions: producing strain, diameter of zone minus diameter of bacterial growth (5 mm), average of duplicates
In short: (§2)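 Producer strains replicated on GM17 agar, grown overnight, then overlaid with soft agar (0.75% w/v) seeded with indicator strain. Zone size = clearing diameter minus 5 mm growth diameter, relative to NZ9800 pCI372nisA control; mean of duplicates.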

Staph. aureus DPC5245 = assay: Deferred antagonism assay; assay type: cell-based; conditions: producing strain; diameter of zone minus 5 mm; average of duplicates; St. aureus DPC5245
In short: as §2

indicator strains = assay: Deferred antagonism assays, various indicator strains (summary); assay type: cell-based; conditions: for Strain(s) against which the derivative (producing strain) displays enhanced bioactivity: relative to nisin A-producing control, value = strains listed
In short: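 Producer strains were replicated on GM17 or GM17 x-gal agar, grown overnight, then overlaid with GM17, BHI, TS or MH soft agar (0.75% w/v) seeded with the indicator strain. Zone size was taken as the clearing diameter minus the diameter of bacterial growth (5 mm).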

L. monocytogenes EGDe = assay: Deferred antagonism assay; assay type: cell-based; parameters: key: −, no inhibition; (+), clear zone directly above the colony; +, 1-5 mm zone; ++, 6-10 mm zone; +++; conditions: nisin strain; Listeria monocytogenes EDGe
Protocol: as §1

C. sporogenes CBC5 = assay: Deferred antagonism assay; assay type: cell-based, Clostridium sporogenes; parameters: key: + = Enhanced bioactivity relative to control; − = Bioactivity equal to or less than control; NA = no activity evident; conditions: producing strain

Substance | Activity score (zone) [1] | Activity score (zone) [2] | Activity score (zone) [3] | Activity score (zone) [4] | Activity score (zone) [5] | Activity score (zone) [6] | Activity score (zone) [7] | Activity score (zone) [8] | Activity score (zone) [9] | Activity score (zone) [10] | Activity score (zone) [11] | Activity score (zone) [12] | Activity score (zone) [13] | Activity score (zone) [14] | Activity score (zone) [15] | zone size relative to that of the NZ9800 pCI372nisA control [16] | zone size relative to that of the NZ9800 pCI372nisA control [17] | zone size relative to that of the NZ9800 pCI372nisA control (Staph. aureus DPC5245) | Strain(s) against which the derivative (producing strain) displays enhanced bioactivity (indicator strains) | Activity score (zone) (L. monocytogenes EGDe) | other results
NisinA K22A (ITSISLCTPGCKTGALMGCNMATATCHCSIHVSK; not fully specified; also: lantibiotic: lanthionine rings and dehydro residues not placed; UniProt P13068 24-57, looked up, variant K22A) [nisin A derivative, hinge substitution K22A] | ++ (++, 6-10 mm zone) | + (+, 1-5 mm zone) | + (+, 1-5 mm zone) | + (+, 1-5 mm zone) | + (+, 1-5 mm zone) | + (+, 1-5 mm zone) | + (+, 1-5 mm zone) | + (+, 1-5 mm zone) | + (+, 1-5 mm zone) | + (+, 1-5 mm zone) | + (+, 1-5 mm zone) | + (+, 1-5 mm zone) | − | + (+, 1-5 mm zone) | + (+, 1-5 mm zone) | 137% | 126% | 117% | L. monocytogenes K22A and L. lactis CBC8; also recorded: L. lactis CBC8 and L. monocytogenes CBC2 , and an additional 13 L. monocytogenes and 3 L. innocua; also recorded: additional 13 L. monocytogenes and 3 L. innocua, S. aureus; also recorded: ST528 and DPC5425, Strep. agalactiae ATCC 13813 | + (+, 1-5 mm zone) | Bioactivity relative to control (C. sporogenes CBC5): −
NisinA M21G (ITSISLCTPGCKTGALMGCNGKTATCHCSIHVSK; not fully specified; also: lantibiotic: lanthionine rings and dehydro residues not placed; UniProt P13068 24-57, looked up, variant M21G) [nisin A derivative, hinge substitution M21G] | ++ (++, 6-10 mm zone) | + (+, 1-5 mm zone) | + (+, 1-5 mm zone) | + (+, 1-5 mm zone) | + (+, 1-5 mm zone) | + (+, 1-5 mm zone) | + (+, 1-5 mm zone) | + (+, 1-5 mm zone) | + (+, 1-5 mm zone) | + (+, 1-5 mm zone) | + (+, 1-5 mm zone) | − | − | − | − | 115% | 125% | 123% | L. monocytogenes CBC2, Staph. aureus CBC4 and C. sporogenes CBC5; also recorded: L. monocytogenes CBC2 , S. aureus CBC4, ST528 , and DPC5425, Strep. agalactiae ATCC 13813, C. sporogenes CBC5 + an additional 7 L. monocytogenes and 3 L. innocua | − | relative bioactivity against the indicators of Table 6 (indicator strains; Staph. aureus ST528, DPC5245 and Strep. agalactiae ATCC 13813 taken together): approximately 120%; Bioactivity relative to control (C. sporogenes CBC5): +
NisinA M21I (ITSISLCTPGCKTGALMGCNIKTATCHCSIHVSK; not fully specified; also: lantibiotic: lanthionine rings and dehydro residues not placed; UniProt P13068 24-57, looked up, variant M21I) [nisin A derivative, hinge substitution M21I] | +++ (+++, <10 mm zone) | + (+, 1-5 mm zone) | ++ (++, 6-10 mm zone) | ++ (++, 6-10 mm zone) | + (+, 1-5 mm zone) | + (+, 1-5 mm zone) | ++ (++, 6-10 mm zone) | + (+, 1-5 mm zone) | ++ (++, 6-10 mm zone) | + (+, 1-5 mm zone) | + (+, 1-5 mm zone) | + (+, 1-5 mm zone) | − | + (+, 1-5 mm zone) | + (+, 1-5 mm zone) | 92% | 107% | 115% | L. momocytogenes CBC2, Staph. aureus CBC4, C. sporogenes CBC5, L. lactis CBC7 and CBC8; also recorded: L. monocytogenes CBC2, S. aureus CBC4, C. sporogenes CBC5, L. lactis CBC7 and an additional 15 L. monocytogenes and 2 L. innocua | + (+, 1-5 mm zone) | Bioactivity relative to control (C. sporogenes CBC5): +
NisinA M21S (ITSISLCTPGCKTGALMGCNSKTATCHCSIHVSK; not fully specified; also: lantibiotic nisin: dehydrated residues and thioether rings not placed; UniProt P13068 24-57, looked up, variant M21S) [nisin A derivative, hinge substitution M21S] | +++ (+++, <10 mm zone) | ++ (++, 6-10 mm zone) | ++ (++, 6-10 mm zone) | ++ (++, 6-10 mm zone) | ++ (++, 6-10 mm zone) | ++ (++, 6-10 mm zone) | +++ (+++, <10 mm zone) | + (+, 1-5 mm zone) | ++ (++, 6-10 mm zone) | + (+, 1-5 mm zone) | + (+, 1-5 mm zone) | + (+, 1-5 mm zone) | + (+, 1-5 mm zone) | + (+, 1-5 mm zone) | + (+, 1-5 mm zone) | 110% | 105% | 110% | L. monocytogenes CBC2 , CBC3, Staph. aureus CBC4, C. sporogenes CBC5 and L. lactis CBC8; also recorded: L. monocytogenes CBC2 , CBC3, S. aureus CBC4, C. sporogenes CBC5, L. lactis CBC8 and an additional 23 L. monocytogenes strains and 3 L. innocua | ++ (++, 6-10 mm zone) | Bioactivity relative to control (C. sporogenes CBC5): +
